According to patent US5389644A, “1,4-dihydropyridine compounds” (priority 1992, dated 1995):

Tests used:
[1] = target: T1, calcium channel (Sus scrofa, UniProt A0A8W4FNC0); test: Affinity for the calcium channel labelled with [^3 ] PN 200110, aorta smooth muscle microsome preparations; assay type: binding; conditions: pig aorta smooth muscle microsomes; means of three independent experiments
T1 construct: pig aorta smooth muscle microsome preparations; from tissue; host or cells: pig aorta smooth muscle microsomes
T1 sequence (A0A8W4FNC0 1-2067): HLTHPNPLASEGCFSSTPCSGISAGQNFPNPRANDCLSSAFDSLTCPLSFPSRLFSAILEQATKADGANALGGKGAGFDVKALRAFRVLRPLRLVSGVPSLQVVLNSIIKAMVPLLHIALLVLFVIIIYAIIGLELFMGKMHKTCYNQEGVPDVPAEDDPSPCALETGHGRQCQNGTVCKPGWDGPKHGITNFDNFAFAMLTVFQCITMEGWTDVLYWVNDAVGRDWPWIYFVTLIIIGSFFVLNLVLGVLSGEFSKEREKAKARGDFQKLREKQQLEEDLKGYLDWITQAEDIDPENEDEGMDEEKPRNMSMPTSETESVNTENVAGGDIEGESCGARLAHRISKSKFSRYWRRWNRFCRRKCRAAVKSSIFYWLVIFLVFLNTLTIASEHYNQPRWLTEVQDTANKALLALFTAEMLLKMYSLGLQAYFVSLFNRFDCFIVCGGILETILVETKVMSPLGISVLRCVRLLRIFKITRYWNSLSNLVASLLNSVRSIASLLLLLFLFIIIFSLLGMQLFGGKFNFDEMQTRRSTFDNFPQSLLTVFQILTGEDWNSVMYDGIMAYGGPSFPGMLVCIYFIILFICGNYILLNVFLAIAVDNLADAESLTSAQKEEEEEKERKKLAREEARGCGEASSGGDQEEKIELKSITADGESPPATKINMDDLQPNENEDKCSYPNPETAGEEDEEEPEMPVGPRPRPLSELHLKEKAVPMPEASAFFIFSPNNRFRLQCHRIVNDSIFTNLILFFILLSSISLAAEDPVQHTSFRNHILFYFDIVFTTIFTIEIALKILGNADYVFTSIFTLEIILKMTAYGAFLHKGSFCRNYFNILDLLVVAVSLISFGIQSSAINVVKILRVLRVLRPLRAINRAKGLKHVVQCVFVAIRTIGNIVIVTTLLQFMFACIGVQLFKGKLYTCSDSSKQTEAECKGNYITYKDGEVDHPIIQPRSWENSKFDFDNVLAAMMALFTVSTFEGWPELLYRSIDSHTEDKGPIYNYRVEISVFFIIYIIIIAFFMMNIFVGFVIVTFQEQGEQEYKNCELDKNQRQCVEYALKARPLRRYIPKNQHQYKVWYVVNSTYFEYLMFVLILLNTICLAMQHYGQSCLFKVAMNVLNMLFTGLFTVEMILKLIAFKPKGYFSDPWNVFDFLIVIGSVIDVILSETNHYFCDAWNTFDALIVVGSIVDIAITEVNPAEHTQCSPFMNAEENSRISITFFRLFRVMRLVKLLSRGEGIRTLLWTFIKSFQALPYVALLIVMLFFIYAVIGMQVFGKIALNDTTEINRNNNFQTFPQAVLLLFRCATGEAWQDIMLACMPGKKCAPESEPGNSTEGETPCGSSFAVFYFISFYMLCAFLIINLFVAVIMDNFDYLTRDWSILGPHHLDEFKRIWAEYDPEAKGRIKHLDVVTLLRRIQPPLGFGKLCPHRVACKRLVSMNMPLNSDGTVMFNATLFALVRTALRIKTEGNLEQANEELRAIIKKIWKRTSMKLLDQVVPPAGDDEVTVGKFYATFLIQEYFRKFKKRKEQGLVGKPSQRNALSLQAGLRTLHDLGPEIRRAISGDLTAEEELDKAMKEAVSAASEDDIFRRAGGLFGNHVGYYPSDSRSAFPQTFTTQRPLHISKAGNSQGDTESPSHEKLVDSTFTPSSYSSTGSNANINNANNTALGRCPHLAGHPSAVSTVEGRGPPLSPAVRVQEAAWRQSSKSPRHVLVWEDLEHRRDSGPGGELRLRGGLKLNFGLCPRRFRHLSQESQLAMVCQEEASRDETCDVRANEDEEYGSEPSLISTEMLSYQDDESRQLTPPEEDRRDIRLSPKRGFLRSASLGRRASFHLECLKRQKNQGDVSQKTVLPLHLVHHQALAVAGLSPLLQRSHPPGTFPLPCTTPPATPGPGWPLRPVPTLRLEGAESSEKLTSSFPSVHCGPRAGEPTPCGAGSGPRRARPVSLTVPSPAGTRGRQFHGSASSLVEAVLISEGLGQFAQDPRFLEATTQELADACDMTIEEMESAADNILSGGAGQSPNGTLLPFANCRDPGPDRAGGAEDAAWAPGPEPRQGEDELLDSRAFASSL
From the text: The results are expressed as IC50 (M) and represent means of three independent experiments.

[2] = test system: KB-A1; test: Cytotoxicity: reversal of resistance to adriamycin (reversion factor), line KB-A1; assay type: cell-based, Human
Protocol: (§1) The parameter measured is the cytotoxicity of the antitumour drug, quantified in the absence and in the presence of the reversing compound. […] The compounds tested for their capacity to reverse the resistance are added at the same time as the cytotoxic agent. The cells are then incubated for 4 days.

[3] = test system: DC-3F/AD; test: Cytotoxicity: reversal of resistance to actinomycin D (reversion factor), line DC-3F/AD; assay type: cell-based, Chinese hamster
Protocol: as §1, with “compound. Two resistant cell lines were used: 1 Chinese hamster lung line, DC-3F/AD, the resistance of which was induced by actinomycin D.” for “compound.”

[4] = test system: P 388/VCR; test: In vivo increase in antitumour activity of vincristine, resistant line P 388/VCR; set-up: species or system murine leukaemia in female B6D2F1 mice
From the text: This study was completed by an in vivo study, using a murine leukaemia resistant to vincristine (P 388/VCR) and using the compounds of the present invention in association with vincristine.
(§2) The sensitive parent line P 388 (murine leukaemia) and the sub-line resistant to vincristine, P 388/VCR, were supplied by NCI (Frederick, USA). The tumour cells (10^6 cells) were inoculated on day 0 into the indraperitoneal cavity of female B6D2F1 mice (Iffa Credo, France) weighing from 18 to 20 g (groups of 8 to 10 animals).
Every day for 4 days, starting from day 1, the animals received:
an administration of 25 to 150 mg/kg by i.p., p.o. or i.v. route of the compound of the present invention to be tested, as mentioned in the table 4a; then
(§3) 30 to 60 minutes later, an administration by the i.p. route of 0.25 mg/kg of vincristine (used as a reference antitumour agent).
(§4) The antitumour activity is expressed as follows: [formula]
(§5) The values are mean values obtained in independent experiments (# sem when n is greater than or equal to 3).

[5] = test system: KB-A1; test: Flow cytometry: intracellular accumulation of ADR, line KB-A1; assay type: cell-based, Human; conditions: ADR 50 μM, 5 hours
Protocol: Also measured was the effect of the compounds on the intracellular concentration of adriamycin. […] By measuring that fluorescence, it is thus possible to obtain a relative measurement of the intracellular concentration of ADR. […] The cells (5×10^5 per ml) were exposed simultaneously to ADR at a fixed concentration (50 μM) and to the tested compounds at various concentrations. After 5 hours' incubation, the intracellular accumulation of ADR was evaluated by FCM. […] The results were presented in the form of linear histograms of the intracellular ADR fluorescence. Expression of the results: for each of the histograms the mean fluorescence per channel (MEAN) was determined by the computer of the apparatus. For all experiments: a negative control (cells without ADR) fixed the autofluorescence threshold. a positive control (cells with ADR) determined the MEAN value=MN1. the "test" tubes (cells with ADR and with compound) were used to determine, for each of the compounds and at each of the concentrations, the MEAN values=MN2. The results are expressed in the form of variations from the mean fluorescence obtained for each of the "test" tubes (MN2) in relation to the mean fluorescence obtained with the positive control (MN1): VAR-MEAN=MN2-MN1. The measured parameter is thus the increase in ADR fluorescence in the presence of the tested compounds.

[6] = test system: P 388; test: In vivo increase in antitumour activity of vincristine, sensitive line P388; set-up: species or system murine leukaemia in female B6D2F1 mice
Protocol: as §2
Every day for 4 days, starting from day 1, the animals received: […]
as §3, §4, §5
Using the sensitive line (P388) the tested compounds of the invention increase considerably the sensitivity of the cells to vincristine.

[7] = with VCR […] i.p., compound 50 mg/kg i.p.
[8] = with VCR […] i.p., compound 150 mg/kg p.o.
[9] = VCR 0, compound 12.5 mg/kg p.o.
[10] = with VCR […] i.p., compound 12.5 mg/kg p.o.

Compound | reversion factor (RF) ([2]; compound 1 μM) | reversion factor (RF) ([2]; compound 5 μM) | reversion factor (RF) ([3]; compound 1 μM) | reversion factor (RF) ([3]; compound 5 μM) | increase in the ADR fluorescence (VAR-MEAN) ([5]; compound 1 μM) | increase in the ADR fluorescence (VAR-MEAN) ([5]; compound 5 μM) | increase in the ADR fluorescence (VAR-MEAN) ([5]; compound […]) | further results
CCOC(=O)C1=C(COCCOCCNCCc2ccccn2)NC(C)=C(C(=O)OC)C1c1cccc(Cl)c1Cl (single isomer, unassigned) [Example 20, d-2-{2-[[2-(2-(N-pyrid-2-yl)ethylamino)ethoxy]ethoxy]methyl}-4-(2,3-dichlorophenyl)-3-ethoxycarbonyl-5-methoxycarbonyl-6-methyl-1,4-dihydropyridine] | – | – | – | – | – | – | – | IC50 [1]: 2.1 µM
CCOC(=O)C1=C(COCCOCCNCc2cccc([N+](=O)[O-])c2)NC(C)=C(C(=O)OC)C1c1cccc(Cl)c1Cl (stereo not drawn) [Example 2, d-2-{[2-(2-(N-m-nitrobenzylamino)ethoxy)ethoxy]methyl}-4-(2,3-dichlorophenyl)-3-ethoxycarbonyl-5-methoxycarbonyl-6-methyl-1,4-dihydropyridine] | 2.2 | 389.5 | 1.5 | 1,478.2 | – | – | – | –
CCOC(=O)C1=C(COCCOCCNCc2ccc(F)cc2)NC(C)=C(C(=O)OC)C1c1cccc(Cl)c1Cl (stereo not drawn) [Example 4, d-2-{[2-(2-(N-p-fluorobenzylamino)ethoxy)ethoxy]methyl}-4-(2,3-dichlorophenyl)-3-ethoxycarbonyl-5-methoxycarbonyl-6-methyl-1,4-dihydropyridine] | 26.0 | 473.7 | 23.0 | 3,962.3 | 2.0 | 18.6 | 7.0 | T/C ([4]; VCR 0, compound 50 mg/kg i.p.): 100%; T/C ([4]; VCR 0, compound 150 mg/kg p.o.): 110%; T/C [4, 7]: 176%; T/C [4, 8]: 181%
CCOC(=O)C1=C(COCCOCCNCc2cccc(F)c2)NC(C)=C(C(=O)OC)C1c1cccc(Cl)c1Cl (stereo not drawn) [Example 5, d-2-{[2-(2-(N-m-fluorobenzylamino)ethoxy)ethoxy]methyl}-4-(2,3-dichlorophenyl)-3-ethoxycarbonyl-5-methoxycarbonyl-6-methyl-1,4-dihydropyridine] | 13.2 | 225.8 | 7.6 | 3,567.0 | – | – | – | –
CCOC(=O)C1=C(COCCOCCNCc2ccccc2F)NC(C)=C(C(=O)OC)C1c1cccc(Cl)c1Cl (stereo not drawn) [Example 6, d-2-{[2-(2-(N-o-fluorobenzylamino)ethoxy)ethoxy]methyl}-4-(2,3-dichlorophenyl)-3-ethoxycarbonyl-5-methoxycarbonyl-6-methyl-1,4-dihydropyridine] | 15.2 | 159.1 | 9.6 | 4,340.9 | – | – | – | –
CCOC(=O)C1=C(COCCOCCNCc2ccc(C#N)cc2)NC(C)=C(C(=O)OC)C1c1cccc(Cl)c1Cl (stereo not drawn) [Example 8, d-2-{[2-(2-(N-p-cyanobenzylamino)ethoxy)ethoxy]methyl}-4(2,3-dichlorophenyl)-3-ethoxycarbonyl-5-methoxycarbonyl-6-methyl-1,4-dihydropyridine] | 6.9 | 136.0 | 11.4 | 1,319.9 | 2.0 | 24.2 | 9.4 | Survivors on day 60 ([6]; VCR 0, compound 150 mg/kg p.o.): 0/8; T/C ([6]; VCR 0, compound 150 mg/kg p.o.): 106%; Survivors on day 60 [6, 8]: 2/8; T/C [6, 8]: 294%
CCOC(=O)C1=C(COCCOCCNCc2ccc(SC)cc2)NC(C)=C(C(=O)OC)C1c1cccc(Cl)c1Cl (stereo not drawn) [Example 9, d-2-{[2-(2-(N-p-methylthiobenzylamino)ethoxy)ethoxy]methyl}-4-(2,3-dichlorophenyl)-3-ethoxycarbonyl-5-methoxycarbonyl-6-methyl-1,4-dihydropyridine] | 2.4 | 99.0 | 1.2 | 560.3 | – | – | – | –
CCOC(=O)C1=C(COCCOCCNCc2cccc3ccccc23)NC(C)=C(C(=O)OC)C1c1cccc(Cl)c1Cl (stereo not drawn) [Example 11, d-2-{[2-(2-(N-naphth-1-ylmethylamino)ethoxy)ethoxy]methyl}-4-(2,3-dichlorophenyl)-3-ethoxycarbonyl-5-methoxycarbonyl-6-methyl-1,4-dihydropyridine] | 1.7 | 336.0 | 1.0 | 2,442.4 | 0.2 | 31.0 | 18.2 | T/C ([4]; VCR 0, compound 50 mg/kg i.p.): 100%; T/C ([4]; VCR 0, compound 150 mg/kg p.o.): 99%; T/C [4, 7]: 146%; T/C [4, 8]: 177%
CCOC(=O)C1=C(COCCOCCNCc2cccs2)NC(C)=C(C(=O)OC)C1c1cccc(Cl)c1Cl (stereo not drawn) [Example 13, d-2-{[2-(2-(N-thien-2-ylmethylamino)ethoxy)ethoxy]methyl)-4-(2,3-dichlorophenyl)-3-ethoxycarbonyl-5-methoxycarbonyl-6-methyl-1,4-dihydropyridine] | 12.3 | 165.1 | 19.4 | 4,141.7 | – | – | – | –
CCOC(=O)C1=C(COCCOCCNCc2ccncc2)NC(C)=C(C(=O)OC)C1c1cccc(Cl)c1Cl (stereo not drawn) [Example 15, d-2-{[2-(2-(N-pyrid-4-ylmethylamino)ethoxy)ethoxy]methyl}-4-(2,3-dichlorophenyl)-3-ethoxycarbonyl-5-methoxycarbonyl-6-methyl-1,4-dihydropyridine] | 12.1 | 281.9 | 301.4 | 6,510.3 | 7.0 | 38.6 | 16.1 | T/C ([4]; VCR 0, compound 25 mg/kg i.p.): 109%; T/C ([4]; VCR 0, compound 25 mg/kg i.v.): 94%; T/C ([4]; VCR 0, compound 25 mg/kg p.o.): 112%; T/C ([4]; with VCR […] i.p., compound 25 mg/kg i.p.): 262%; T/C ([4]; with VCR […] i.p., compound 25 mg/kg i.v.): 186%; T/C ([4]; with VCR […] i.p., compound 25 mg/kg p.o.): 180%; Survivors on day 60 [6, 9]: 0/8; T/C [6, 9]: 101%; Survivors on day 60 [6, 10]: 3/8; T/C [6, 10]: 540%
CCOC(=O)C1=C(COCCOCCNCc2c[nH]c3ccccc23)NC(C)=C(C(=O)OC)C1c1cccc(Cl)c1Cl (stereo not drawn) [Example 22, d-2-{[2-(2-[N-(indol-3-yl)methylamino]ethoxy)ethoxy]methyl}-4-(2,3-dichlorophenyl)-3-ethoxycarbonyl-5-methoxycarbonyl-6-methyl-1,4-dihydropyridine] | – | – | – | – | – | – | – | IC50 [1]: 3.3 µM
CCOC(=O)C1=C(COCCOCCNC2c3ccccc3CCc3ccccc32)NC(C)=C(C(=O)OC)C1c1cccc(Cl)c1Cl (stereo not drawn) [Example 28, d-2-{[2-(2-[N-dibenzo[a,d]cyclohept-5-ylamino)ethoxy)ethoxy]methyl}-4-(2,3-dichlorophenyl)-3-ethoxycarbonyl-5-methoxycarbonyl-6-methyl-1,4-dihydropyridine] | – | – | 1.4 | 447.3 | – | – | – | T/C ([4]; VCR 0, compound 50 mg/kg i.p.): 107%; T/C ([4]; VCR 0, compound 150 mg/kg p.o.): 99%; T/C [4, 7]: 180%; T/C [4, 8]: 207%
COC(=O)C1=C(C)NC(C)=C(C(=O)OC)C1c1ccccc1[N+](=O)[O-] [NIFEDIPINE, nifedipine, reference compound] | – | – | – | – | 0.0 | 0.0 | 0.0 | –
